# Assay results reported in paper PMC11435183, “Enzymatic Characterization of SpPAL Genes in S. polyrhiza and Overexpression of the SpPAL3” (Plants, 2024).
# Key:
# Type in all cases: biochemical, Spirodela polyrhiza
# [1] = test system: T1, SpPAL2; experiment: Michaelis-Menten kinetics, deamination to p-coumaric acid; settings: 0.1-2.5 mM L-Tyr; pH and temperature of the kinetic runs not clearly stated (activity assay: 100 mM Tris-HCl pH 8.0, 50 °C); Km lies above the tested concentration range
# T1 construct: full-length ORF (2277 bp); about 83 kDa; homotetramer only predicted
# Description: Michaelis-Menten kinetics, deamination to p-coumaric acid on SpPAL2
# [2] = test system: T2, SpPAL1; experiment: as above; settings: 0.1-2.5 mM L-Tyr; pH and temperature of the kinetic runs not clearly stated (activity assay: 100 mM Tris-HCl pH 8.0, 50 °C)
# T2 construct: full-length ORF (2172 bp); about 78 kDa; homotetramer only predicted
# Description: Michaelis-Menten kinetics, deamination to p-coumaric acid on SpPAL1
# [3] = test system: T1, SpPAL2; experiment: Michaelis-Menten kinetics, deamination to trans-cinnamic acid; settings: 0-20 mM L-Phe; pH and temperature of the kinetic runs not clearly stated (activity assay: 100 mM Tris-HCl pH 8.0, 50 °C)
# Description: Michaelis-Menten kinetics, deamination to trans-cinnamic acid on SpPAL2
# [4] = test system: T2, SpPAL1; experiment: as above; settings: 0-20 mM L-Phe; pH and temperature of the kinetic runs not clearly stated (activity assay: 100 mM Tris-HCl pH 8.0, 50 °C)
# Description: Michaelis-Menten kinetics, deamination to trans-cinnamic acid on SpPAL1
# [5] = test system: T3, SpPAL3; experiment: as above; settings: 0-20 mM L-Phe; pH and temperature of the kinetic runs not clearly stated (activity assay: 100 mM Tris-HCl pH 8.0, 50 °C)
# T3 construct: about 79 kDa; homotetramer only predicted
# Description: Michaelis-Menten kinetics, deamination to trans-cinnamic acid on SpPAL3
Km [3] [µM],Km [4] [µM],Km [5] [µM],Compound,Km [1] [µM],Km [2] [µM]
,,,N[C@@H](Cc1ccc(O)cc1)C(=O)O [L-Tyr],8720,1290
345,252,632,N[C@@H](Cc1ccccc1)C(=O)O [L-Phe],,
